The record followed here is US11873298B2, “Compounds and uses thereof” (JANSSEN PHARMACEUTICA NV, priority 2017, dated 2024).

One assay addresses T1, Ole1 (Saccharomyces cerevisiae, UniProt P21147).
T1 construct: expressed in transfected cells; host or cells: S. cerevisiae ole1Δ strain (W303 pdr1Δ pdr3Δ background), plasmid pRS316 with TDH3 promoter and CYC1 terminator
T1 sequence (P21147 1-510): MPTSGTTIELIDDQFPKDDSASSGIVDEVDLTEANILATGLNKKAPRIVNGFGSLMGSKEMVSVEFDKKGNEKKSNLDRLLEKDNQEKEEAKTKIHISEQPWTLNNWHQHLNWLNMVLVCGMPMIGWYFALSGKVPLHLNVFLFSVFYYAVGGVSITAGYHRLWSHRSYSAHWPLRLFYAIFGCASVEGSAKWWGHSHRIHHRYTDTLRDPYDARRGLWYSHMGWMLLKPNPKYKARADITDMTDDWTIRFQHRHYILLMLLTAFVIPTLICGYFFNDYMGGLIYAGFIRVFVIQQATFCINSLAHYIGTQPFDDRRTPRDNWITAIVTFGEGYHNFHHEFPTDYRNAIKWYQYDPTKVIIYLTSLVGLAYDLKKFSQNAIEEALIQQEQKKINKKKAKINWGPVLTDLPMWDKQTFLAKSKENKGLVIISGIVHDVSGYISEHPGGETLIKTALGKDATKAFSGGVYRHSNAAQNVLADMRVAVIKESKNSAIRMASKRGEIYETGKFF
Description: Growth inhibition of yeast strain expressing Ole1 as sole desaturase. The assay is classed as cell-based. The settings on record: yeast strain expressing Ole1 as sole desaturase. The procedure, abridged: (§1)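 Yeast ole1Δ strain (W303 pdr1Δ pdr3Δ background) carrying plasmid-borne Ole1, SCD1 or SCD5 as sole desaturase was grown in uracil-lacking media, pre-cultured in raffinose for 6 h, then seeded in galactose medium with compound in DMSO. Growth was read as OD600 after 30° C. incubation: 24 h for Ole1, 40 h for SCD1/SCD5.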

The next assay concerns the target T2, SCD1 (Homo sapiens, UniProt O00767).
T2 construct: host or cells: S. cerevisiae ole1Δ strain (W303 pdr1Δ pdr3Δ background), plasmid pRS316 with TDH3 promoter and CYC1 terminator
T2 sequence (O00767 1-359): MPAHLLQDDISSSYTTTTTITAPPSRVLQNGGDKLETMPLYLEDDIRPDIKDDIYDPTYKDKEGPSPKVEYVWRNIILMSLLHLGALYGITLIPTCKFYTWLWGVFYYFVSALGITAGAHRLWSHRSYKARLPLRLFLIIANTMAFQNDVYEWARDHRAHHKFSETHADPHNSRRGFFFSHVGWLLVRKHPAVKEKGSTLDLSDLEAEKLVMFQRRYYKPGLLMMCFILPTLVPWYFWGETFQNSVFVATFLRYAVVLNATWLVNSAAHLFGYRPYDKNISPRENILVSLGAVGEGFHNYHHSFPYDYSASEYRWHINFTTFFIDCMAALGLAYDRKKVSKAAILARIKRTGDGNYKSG
Description: Growth inhibition of humanized yeast strain expressing SCD1 as sole desaturase. The settings on record: humanized yeast strain expressing SCD1. The assay is classed as cell-based. Put shortly:
as §1

In a further assay the target is T3, SCD5 (Homo sapiens, UniProt Q86SK9).
T3 construct: host or cells: S. cerevisiae ole1Δ strain (W303 pdr1Δ pdr3Δ background), plasmid pRS316 with TDH3 promoter and CYC1 terminator
T3 sequence (Q86SK9 1-330): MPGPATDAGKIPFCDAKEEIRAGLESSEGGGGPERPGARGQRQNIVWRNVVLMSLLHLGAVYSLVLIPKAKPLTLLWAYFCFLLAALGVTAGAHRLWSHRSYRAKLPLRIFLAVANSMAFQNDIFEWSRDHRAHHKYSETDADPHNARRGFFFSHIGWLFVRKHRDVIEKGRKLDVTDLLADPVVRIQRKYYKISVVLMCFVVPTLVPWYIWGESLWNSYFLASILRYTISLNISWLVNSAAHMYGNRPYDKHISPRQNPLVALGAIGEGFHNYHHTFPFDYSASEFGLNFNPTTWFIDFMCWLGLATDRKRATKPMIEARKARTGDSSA
Nature of the assay: Growth inhibition of humanized yeast strain expressing SCD5 as sole desaturase. The class given is cell-based. To be noted: humanized yeast strain expressing SCD5. Put shortly:
as §1

The test system of assay [1] is yeast strains expressing the human α-synuclein. Description: Yeast α-synuclein toxicity rescue assay (OD600 growth). To be noted: 40 h; for EC50: read-out: α-Syn EC50; for Emax: read-out: α-Syn Emax.

SMILES strings stand for the structures. “And” between values parts separate entries of the source, which are not always exact repeats. Equal entries are not always repeated.

The term IC50 denotes the concentration needed to halve the response being measured. A high value points to weaker potency in that assay. The term EC50 denotes the concentration giving half of the maximal effect. As to `CCOc1cnc(-c2noc(C3CCN(C(=O)CN4Cc5ccccc5C4=O)CC3)n2)cc1OC` [Compound 147], on Ole1, the IC50 was greater than 45 µM and the “OLE1 % Max Inhibition” value is 9.34%. For the same compound, on SCD1, the IC50 is greater than 45 µM and the “SCD1 % Max Inhibition” value was 74.14%. Also, on SCD5, the IC50 is greater than 45 µM and the “SCD5 % Max Inhibition” value stood at 86.70%. Moreover, in assay [1], the EC50 is 17.9 µM and the Emax was 453%.

`COc1ccc(-c2noc(C3CCN(C(=O)CNC(=O)N4CCCCC4)CC3)n2)cc1OC` [Compound 143]: at Ole1, the IC50 was greater than 45 µM and the “OLE1 % Max Inhibition” value is recorded as 95.01%. Further, at SCD1, the IC50 is greater than 45 µM and the “SCD1 % Max Inhibition” value amounted to 79.38%. Moreover, at SCD5, the IC50 is greater than 45 µM and the “SCD5 % Max Inhibition” value came out at 96.06%. Further, in assay [1], the EC50 is 16.9 µM and the Emax came out at 73%.

With `O=C(NCC(=O)N1CCC(c2nc(-c3ccccn3)no2)CC1)c1ccccc1` [compound 78], the IC50 at Ole1 is 38.3 µM; against SCD1, greater than 45 µM; at SCD5 it was greater than 45 µM. Further, the EC50 in assay [1] was found to be 14.6 µM. In addition, the Emax in assay [1] was 38%.

With `Cn1c(=O)[nH]c2ccc(-c3noc(C4CCN(C(=O)CN5Cc6ccccc6C5=O)CC4)n3)cc21` [Compound 133], on Ole1, the IC50 is greater than 45 µM and the “OLE1 % Max Inhibition” value is 26.72%. At SCD1, the IC50 is 37.3 µM and the “SCD1 % Max Inhibition” value was found to be 61.21%. Further, at SCD5, the IC50 was greater than 45 µM and the “SCD5 % Max Inhibition” value worked out at 74.75%. In addition, in assay [1], the EC50 came out at 6.38 µM and the Emax came out at 281%.

Regarding `Cc1noc2cc(-c3noc(C4CCN(C(=O)C5CC(=O)N(c6ccccc6)C5)CC4)n3)ccc12` (stereo not drawn) [Compound 136], on Ole1, the IC50 is greater than 45 µM and the “OLE1 % Max Inhibition” value worked out at 73.60%. On SCD1, the IC50 was greater than 45 µM and the “SCD1 % Max Inhibition” value was 34.33%. On SCD5, the IC50 was greater than 45 µM and the “SCD5 % Max Inhibition” value came to 17.07%. In assay [1], the EC50 amounted to 4.08 µM and the Emax came out at 67%.

In the case of `COc1ccc(-c2noc(C3CCN(CCNC(=O)c4ccccc4)CC3)n2)cc1OC` [Compound 32], at Ole1, the IC50 was greater than 45 µM and the “OLE1 % Max Inhibition” value amounted to 108.22%. On SCD1, the IC50 is greater than 45 µM and the “SCD1 % Max Inhibition” value came out at 84.16%. Moreover, at SCD5, the IC50 is greater than 45 µM and the “SCD5 % Max Inhibition” value amounted to 80.17%. In assay [1], the EC50 worked out at 9.88 µM and the Emax worked out at 41%.

`CCOc1ccc(-c2noc(C3CCN(C(=O)[C@H]4CN(c5ccccc5)C(=O)O4)CC3)n2)cc1OC` [Compound 148]: on Ole1, the IC50 is greater than 45 µM and the “OLE1 % Max Inhibition” value is on record as 99.90%. On SCD1, the IC50 is greater than 45 µM and the “SCD1 % Max Inhibition” value stood at 79.55%. Also, on SCD5, the IC50 is greater than 45 µM and the “SCD5 % Max Inhibition” value is on record as 86.53%. Further, in assay [1], the EC50 was determined as 13.7 µM and the Emax amounted to 258%.

`CCOc1ccc(-c2noc(C3CCN(C(=O)C4CC(=O)N(c5ccccc5)C4)CC3)n2)nc1OC` (stereo not drawn) [Compound 108]: on Ole1, the IC50 is greater than 45 µM and the “OLE1 % Max Inhibition” value amounted to 72.04%. In addition, at SCD1, the IC50 is greater than 45 µM and the “SCD1 % Max Inhibition” value is on record as 72.79%. Moreover, on SCD5, the IC50 was greater than 45 µM and the “SCD5 % Max Inhibition” value is 64.66%. Moreover, in assay [1], the EC50 was 11.1 µM and the Emax is 316%.

As to `CCOc1cnc(-c2noc(C3CCN(C(=O)C4CC(=O)N(c5ccccc5)C4)CC3)n2)cc1OC` (stereo not drawn) [Compound 118], at Ole1, the IC50 was greater than 45 µM and the “OLE1 % Max Inhibition” value is given as 87.29%. On SCD1, the IC50 was greater than 45 µM and the “SCD1 % Max Inhibition” value is given as 93.37%. Moreover, on SCD5, the IC50 was determined as 27.5 µM and the “SCD5 % Max Inhibition” value is on record as 32.21%. In assay [1], the EC50 worked out at 15.7 µM and the Emax came out at 65%.

In the case of `Cc1nn(C)c2nc(-c3noc(C4CCN(C(=O)C5CC(=O)N(c6ccccc6)C5)CC4)n3)ccc12` (stereo not drawn) [Compound 116], at Ole1, the IC50 was greater than 45 µM and the “OLE1 % Max Inhibition” value worked out at 12.75%. Also, at SCD1, the IC50 was greater than 45 µM and the “SCD1 % Max Inhibition” value is 71.12%. At SCD5, the IC50 was greater than 45 µM and the “SCD5 % Max Inhibition” value is reported as 8.35%. Also, in assay [1], the EC50 was 9.04 µM and the Emax amounted to 345%.

Turning to `CCOc1ncc(-c2noc(C3CCN(C(=O)CNC(=O)c4ccccc4)CC3)n2)cc1OC` [Compound 132], at Ole1, the IC50 is greater than 45 µM and the “OLE1 % Max Inhibition” value was 7.45%. On SCD1, the IC50 is greater than 45 µM and the “SCD1 % Max Inhibition” value turned out to be 115.10%. On SCD5, the IC50 was greater than 45 µM and the “SCD5 % Max Inhibition” value was found to be 94.34%. Moreover, in assay [1], the EC50 amounted to 1.01 µM and the Emax amounted to 253%.

Turning to `COc1ccnc(C(=O)NCC(=O)N2CCC(c3nc(-c4ccc5c(C)nn(C)c5c4)no3)CC2)c1` [Compound 150], on Ole1, the IC50 was greater than 45 µM and the “OLE1 % Max Inhibition” value is reported as 5.16%. For the same compound, on SCD1, the IC50 is greater than 45 µM and the “SCD1 % Max Inhibition” value is 74.48%. On SCD5, the IC50 is greater than 45 µM and the “SCD5 % Max Inhibition” value stood at 86.15%. In assay [1], the EC50 worked out at 0.099 µM and the Emax stood at 473%.

For `CCN1CCOc2cc(-c3noc(C4CCN(C(=O)CNC(=O)c5ccccc5)CC4)n3)ccc21` [Compound 110], on Ole1, the IC50 was greater than 45 µM and the “OLE1 % Max Inhibition” value is on record as 96.31%. At SCD1, the IC50 was greater than 45 µM and the “SCD1 % Max Inhibition” value came to 66.85%. At SCD5, the IC50 was greater than 45 µM and the “SCD5 % Max Inhibition” value was 65.07%. In assay [1], the EC50 was 4.49 µM and the Emax came to 374%.

`COc1ccc(-c2noc(C3CCN(C(=O)C(C)(C)NC(=O)c4ccccc4)CC3)n2)cc1OC` [Compound 29]: at Ole1, the IC50 is greater than 45 µM and the “OLE1 % Max Inhibition” value was 91.00%. For the same compound, on SCD1, the IC50 was greater than 45 µM and the “SCD1 % Max Inhibition” value turned out to be 69.52%. Also, on SCD5, the IC50 is greater than 45 µM and the “SCD5 % Max Inhibition” value is given as 74.10%. In assay [1], the EC50 worked out at 13.9 µM and the Emax came to 38%.

As to `Cc1nn(C)c2cc(-c3noc(C4CCN(C(=O)CNC(=O)c5ccccc5)CC4)n3)ccc12` [Compound 40], at Ole1, the IC50 was greater than 45 µM; the “OLE1 % Max Inhibition” value is 1.26% and 0.80% and 4.9%. On SCD1, the IC50 is greater than 45 µM; the “SCD1 % Max Inhibition” value was 41.70% and 47.19% and 57.7%. The same compound showed an IC50 against SCD5 greater than 45 µM. Also, in assay [1], the EC50 is 0.086 µM and the Emax was determined as 443%.

Regarding `COc1ccc(-c2noc(C3CCN(C(=O)CNC(C)=O)CC3)n2)cc1OC` [Compound 46], at Ole1, the IC50 was greater than 45 µM and the “OLE1 % Max Inhibition” value came out at 87.95%. Moreover, on SCD1, the IC50 was greater than 45 µM and the “SCD1 % Max Inhibition” value came out at 70.27%. Moreover, on SCD5, the IC50 is greater than 45 µM and the “SCD5 % Max Inhibition” value is 72.35%. Also, in assay [1], the EC50 came to 10.9 µM and the Emax amounted to 35%.

Consider `COc1ccccc1-c1noc(C2CCN(C(=O)CNC(=O)c3ccccc3)CC2)n1` [compound 12], for which the IC50 at Ole1, on SCD1 and against SCD5 was greater than 45 µM each time. Further, the EC50 in assay [1] turned out to be 16.2 µM. Moreover, the Emax in assay [1] amounted to 43%.
